Test results: PubChem BioAssay (NCI)
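Test compounds were applied to cells in 96-well plates for 48 hours at 5 doses. TGI denotes the concentration required for complete inhibition of growth.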

Experiments:
Assay in all cases: growth of human tumour cells (NCI), 48 h
HCT-15 colon = system: HCT-15 colon
HT29 colon = system: HT29 colon
HS 578T breast = system: HS 578T breast
OVCAR-4 ovarian = system: OVCAR-4 ovarian
HCT-116 colon = system: HCT-116 colon
A549 NSCLC = system: A549 NSCLC
SK-MEL-2 melanoma = system: SK-MEL-2 melanoma
UACC-62 melanoma = system: UACC-62 melanoma
PC-3 prostate = system: PC-3 prostate
NCI/ADR-RES ovarian = system: NCI/ADR-RES ovarian

`COc1ccc(C2=C(N)c3ccccc3C2=O)cc1` was tested, and the TGI (HCT-15 colon) was > 100 µM, the TGI (HT29 colon) was > 100 µM and the TGI (HS 578T breast) was 63.9 µM. The TGI (OVCAR-4 ovarian) was > 100 µM, the TGI (HCT-116 colon) was > 100 µM and the TGI (A549 NSCLC) was > 100 µM. For the same compound, the TGI (SK-MEL-2 melanoma) was > 100 µM, the TGI (UACC-62 melanoma) was > 100 µM and the TGI (PC-3 prostate) was > 100 µM. The TGI (NCI/ADR-RES ovarian) was > 100 µM.

With `CC(CN(C)C)C(O)(c1ccccc1)c1ccccc1` (stereo not given) the TGI (HCT-15 colon) was > 100 µM, the TGI (HT29 colon) was > 100 µM and the TGI (HS 578T breast) was > 100 µM. For the same compound, the TGI (OVCAR-4 ovarian) was > 100 µM, the TGI (HCT-116 colon) was > 100 µM and the TGI (A549 NSCLC) was > 100 µM. The TGI (SK-MEL-2 melanoma) was > 100 µM, the TGI (UACC-62 melanoma) was > 100 µM and the TGI (PC-3 prostate) was > 100 µM. The TGI (NCI/ADR-RES ovarian) was > 100 µM.

With `Cc1ccc2c3ccc4c(c3n(C)c2c1)C(=O)C=CC4=O` the TGI (HCT-15 colon) was > 10 µM, the TGI (HT29 colon) was > 10 µM and the TGI (HS 578T breast) was > 10 µM. For the same compound, the TGI (OVCAR-4 ovarian) was > 7.77 µM, the TGI (HCT-116 colon) was 4.95 µM and the TGI (A549 NSCLC) was > 10 µM. The TGI (SK-MEL-2 melanoma) was > 10 µM, the TGI (UACC-62 melanoma) was > 10 µM and the TGI (PC-3 prostate) was > 10 µM. For the same compound, the TGI (NCI/ADR-RES ovarian) was > 10 µM.

`O=C1C(=O)C(CCCO)(CCCO)CCCCCCCCC1(CCCO)CCCO` was tested, and the TGI (HCT-15 colon) was > 100 µM, the TGI (HT29 colon) was > 100 µM and the TGI (HS 578T breast) was > 100 µM. For the same compound, the TGI (OVCAR-4 ovarian) was > 100 µM, the TGI (HCT-116 colon) was > 100 µM and the TGI (A549 NSCLC) was > 100 µM. The TGI (SK-MEL-2 melanoma) was > 100 µM, the TGI (UACC-62 melanoma) was > 100 µM and the TGI (PC-3 prostate) was > 100 µM. For the same compound, the TGI (NCI/ADR-RES ovarian) was > 100 µM.

For `COC(=O)[C@]12CCC(=O)N1[C@H](C(=O)O)Cc1c2[nH]c2ccccc12`, the TGI (HCT-15 colon) was > 100 µM, the TGI (HT29 colon) was > 100 µM and the TGI (HS 578T breast) was > 100 µM. The TGI (OVCAR-4 ovarian) was > 100 µM, the TGI (HCT-116 colon) was > 100 µM and the TGI (A549 NSCLC) was > 100 µM. For the same compound, the TGI (SK-MEL-2 melanoma) was > 100 µM, the TGI (UACC-62 melanoma) was > 100 µM and the TGI (PC-3 prostate) was > 100 µM. The TGI (NCI/ADR-RES ovarian) was > 100 µM.

Work on `OCC1=C[C@@](COCc2ccccc2)(OCc2ccccc2)[C@@H](OCc2ccccc2)[C@@H]1OCc1ccccc1` yielded a TGI (HCT-15 colon) of 57.8 µM, a TGI (HT29 colon) of 35.6 µM and a TGI (HS 578T breast) of 87.6 µM. The TGI (OVCAR-4 ovarian) was 73.3 µM, the TGI (HCT-116 colon) was 47 µM and the TGI (A549 NSCLC) was 67.3 µM. For the same compound, the TGI (SK-MEL-2 melanoma) was 39.3 µM, the TGI (UACC-62 melanoma) was 39 µM and the TGI (PC-3 prostate) was 55.5 µM. The TGI (NCI/ADR-RES ovarian) was 16.9 µM.

For `COc1cc(/C=C/C=C2\CC(C)C/C(=C\C=C\c3ccc(O)c(OC)c3)C2=O)ccc1O` (stereo not given), the TGI (HCT-15 colon) was > 100 µM, the TGI (HT29 colon) was 31 µM and the TGI (HS 578T breast) was > 100 µM. The TGI (OVCAR-4 ovarian) was 39.9 µM, the TGI (HCT-116 colon) was > 100 µM and the TGI (A549 NSCLC) was > 100 µM. The TGI (SK-MEL-2 melanoma) was > 100 µM, the TGI (UACC-62 melanoma) was 26.7 µM and the TGI (PC-3 prostate) was 48.8 µM. It also gave a TGI (NCI/ADR-RES ovarian) of 77.4 µM.

In the case of `CNc1ccc([N+](=O)[O-])cc1C(=O)N1CCC[C@H]1CO`, the TGI (HCT-15 colon) is reported as > 100 µM, the TGI (HT29 colon) is reported as > 100 µM and the TGI (HS 578T breast) is reported as > 100 µM. The TGI (OVCAR-4 ovarian) was > 100 µM, the TGI (HCT-116 colon) was > 100 µM and the TGI (A549 NSCLC) was > 100 µM. The TGI (SK-MEL-2 melanoma) was > 100 µM, the TGI (UACC-62 melanoma) was > 100 µM and the TGI (PC-3 prostate) was > 100 µM. For the same compound, the TGI (NCI/ADR-RES ovarian) was > 100 µM.

`C1CN(C23OC4(N5CCOCC5)C5C6CC(C7C6C4C72)C53)CCO1` (stereo not given) was tested, and the TGI (HCT-15 colon) was > 100 µM, the TGI (HT29 colon) was > 100 µM and the TGI (HS 578T breast) was > 100 µM. For the same compound, the TGI (OVCAR-4 ovarian) was > 100 µM, the TGI (HCT-116 colon) was > 100 µM and the TGI (A549 NSCLC) was > 100 µM. The TGI (SK-MEL-2 melanoma) was > 100 µM, the TGI (UACC-62 melanoma) was > 100 µM and the TGI (PC-3 prostate) was > 100 µM. For the same compound, the TGI (NCI/ADR-RES ovarian) was > 100 µM.

For `COC(=O)C1CC(C=O)=C(SC)N1` (stereo not given), the TGI (HCT-15 colon) was > 50 µM, the TGI (HT29 colon) was > 50 µM and the TGI (HS 578T breast) was > 50 µM. The TGI (OVCAR-4 ovarian) was > 50 µM, the TGI (HCT-116 colon) was > 50 µM and the TGI (A549 NSCLC) was > 50 µM. For the same compound, the TGI (SK-MEL-2 melanoma) was > 50 µM, the TGI (UACC-62 melanoma) was > 50 µM and the TGI (PC-3 prostate) was > 50 µM. For the same compound, the TGI (NCI/ADR-RES ovarian) was > 50 µM.

`O=C(n1c(=O)n(-c2ccc([N+](=O)[O-])cc2)c(=O)n1C(=O)C(Cl)(Cl)Cl)C(Cl)(Cl)Cl` was tested, and the TGI (HCT-15 colon) was > 100 µM, the TGI (HT29 colon) was > 100 µM and the TGI (HS 578T breast) was > 100 µM. For the same compound, the TGI (OVCAR-4 ovarian) was > 100 µM, the TGI (HCT-116 colon) was > 100 µM and the TGI (A549 NSCLC) was > 100 µM. The TGI (SK-MEL-2 melanoma) was > 100 µM, the TGI (UACC-62 melanoma) was > 100 µM and the TGI (PC-3 prostate) was > 100 µM. The TGI (NCI/ADR-RES ovarian) was > 100 µM.

In the case of `Fc1ccccc1C1SCC2=Nc3ccccc3CN21` (stereo not given), the TGI (HCT-15 colon) is reported as > 100 µM, the TGI (HT29 colon) is reported as > 100 µM and the TGI (HS 578T breast) is reported as > 100 µM. The TGI (OVCAR-4 ovarian) was > 100 µM, the TGI (HCT-116 colon) was > 100 µM and the TGI (A549 NSCLC) was > 100 µM. For the same compound, the TGI (SK-MEL-2 melanoma) was > 100 µM, the TGI (UACC-62 melanoma) was > 100 µM and the TGI (PC-3 prostate) was > 100 µM. For the same compound, the TGI (NCI/ADR-RES ovarian) was > 100 µM.

Compound `CCCCCCCCCCCOCCC1C(C(C)OCCN2CCCC2)OC2OC(C)(C)OC21` (stereo not given) has a TGI (HCT-15 colon) of 4.35 µM, a TGI (HT29 colon) of 3.5 µM and a TGI (HS 578T breast) of 6.93 µM. The TGI (OVCAR-4 ovarian) was 22.3 µM, the TGI (HCT-116 colon) was 3.38 µM and the TGI (A549 NSCLC) was 11.5 µM. It also gave a TGI (SK-MEL-2 melanoma) of 3.51 µM, a TGI (UACC-62 melanoma) of 3.28 µM and a TGI (PC-3 prostate) of 6.05 µM. For the same compound, the TGI (NCI/ADR-RES ovarian) was 19.6 µM.

With `CC(C)(C)OC(=O)N[C@@H](Cc1ccccc1)C(=O)N1CC[C@@H](C(=O)N2[C@H]3CC4CC[C@@]3(CS2(=O)=O)C4(C)C)N1` the TGI (HCT-15 colon) was > 100 µM, the TGI (HT29 colon) was > 100 µM and the TGI (HS 578T breast) was > 100 µM. The TGI (OVCAR-4 ovarian) was > 100 µM, the TGI (HCT-116 colon) was > 100 µM and the TGI (A549 NSCLC) was > 100 µM. For the same compound, the TGI (SK-MEL-2 melanoma) was > 100 µM, the TGI (UACC-62 melanoma) was > 100 µM and the TGI (PC-3 prostate) was > 100 µM. The TGI (NCI/ADR-RES ovarian) was > 100 µM.

With `CCCNC(=O)Cn1c(-c2ccccc2)cc2ccccc21` the TGI (HCT-15 colon) was > 100 µM, the TGI (HT29 colon) was > 100 µM and the TGI (HS 578T breast) was > 100 µM. For the same compound, the TGI (OVCAR-4 ovarian) was > 100 µM, the TGI (HCT-116 colon) was 70.4 µM and the TGI (A549 NSCLC) was > 100 µM. The TGI (SK-MEL-2 melanoma) was > 100 µM, the TGI (UACC-62 melanoma) was > 100 µM and the TGI (PC-3 prostate) was > 100 µM. For the same compound, the TGI (NCI/ADR-RES ovarian) was > 100 µM.

In the case of `OCC(CO)CC1COc2ccccc2O1` (stereo not given), the TGI (HCT-15 colon) is reported as > 10 µM, the TGI (HT29 colon) is reported as > 10 µM and the TGI (HS 578T breast) is reported as > 10 µM. For the same compound, the TGI (OVCAR-4 ovarian) was > 10 µM, the TGI (HCT-116 colon) was > 10 µM and the TGI (A549 NSCLC) was > 10 µM. For the same compound, the TGI (SK-MEL-2 melanoma) was > 10 µM, the TGI (UACC-62 melanoma) was > 10 µM and the TGI (PC-3 prostate) was > 10 µM. For the same compound, the TGI (NCI/ADR-RES ovarian) was > 10 µM.

In the case of `c1csc(-c2csc(-c3cccs3)c2)c1`, the TGI (HCT-15 colon) is reported as > 100 µM, the TGI (HT29 colon) is reported as > 100 µM and the TGI (HS 578T breast) is reported as > 100 µM. For the same compound, the TGI (OVCAR-4 ovarian) was > 100 µM, the TGI (HCT-116 colon) was > 100 µM and the TGI (A549 NSCLC) was > 100 µM. For the same compound, the TGI (SK-MEL-2 melanoma) was 41.1 µM, the TGI (UACC-62 melanoma) was > 100 µM and the TGI (PC-3 prostate) was 82.7 µM. For the same compound, the TGI (NCI/ADR-RES ovarian) was > 100 µM.

`COc1ccc(N2C(=O)CSC2c2cc(OC)c(OC)c(OC)c2)cc1` (stereo not given) was tested, and the TGI (HCT-15 colon) was 44.4 µM, the TGI (HT29 colon) was 57.1 µM and the TGI (HS 578T breast) was > 100 µM. For the same compound, the TGI (OVCAR-4 ovarian) was > 100 µM, the TGI (HCT-116 colon) was 33.4 µM and the TGI (A549 NSCLC) was 83.4 µM. The TGI (SK-MEL-2 melanoma) was > 100 µM, the TGI (UACC-62 melanoma) was 20.9 µM and the TGI (PC-3 prostate) was > 100 µM. For the same compound, the TGI (NCI/ADR-RES ovarian) was 85.6 µM.
